This note sets out measurements from ChEMBL document CHEMBL3580534, “Antibacterial Biphenanthrenes from the Fibrous Roots of Bletilla striata” (2015).

In general, MIC refers to the lowest concentration that inhibits growth of the organism.

In brackets after ≈: the same amount, converted by molar mass. Some results are limits rather than exact numbers.

Holding throughout (assay type): functional
Assay [1] has as its system Escherichia coli. Description: Antimicrobial activity against Escherichia coli ATCC 35218 assessed as complete prevention of visible growth after incubation at 37 degC for 18 to 20 hrs.
The subject of assay [2] is Enterococcus faecalis. Kind of assay: Antimicrobial activity against Enterococcus faecalis ATCC 29212 assessed as complete prevention of visible growth after incubation at 37 degC for 18 to 20 hrs.
Assay [3] relates to Staphylococcus epidermidis. Description: Antimicrobial activity against Staphylococcus epidermidis CMCC 26069 assessed as complete prevention of visible growth after incubation at 37 degC for 18 to 20 hrs.
Assay [4] has as its system Staphylococcus aureus. Description: Antimicrobial activity against ampicillin-resistant Staphylococcus aureus ATCC 29213 assessed as complete prevention of visible growth after incubation at 37 degC for 18 to 20 hrs.
Assay [5] has as its system Bacillus subtilis. Kind of assay: Antimicrobial activity against Bacillus subtilis CGMCC 1.1470 assessed as complete prevention of visible growth after incubation at 37 degC for 18 to 20 hrs.
Assay [6] has as its system Staphylococcus aureus. Description: Antimicrobial activity against methicillin-resistant Staphylococcus aureus ATCC 43300 assessed as complete prevention of visible growth after incubation at 37 degC for 18 to 20 hrs.
In assay [7] the test system is Proteus vulgaris. Description: Antimicrobial activity against Proteus vulgaris CMCC 49027 assessed as complete prevention of visible growth after incubation at 37 degC for 18 to 20 hrs.
Assay [8] concerns Staphylococcus aureus. Kind of assay: Antimicrobial activity against Staphylococcus aureus ATCC 25923 assessed as complete prevention of visible growth after incubation at 37 degC for 18 to 20 hrs.

Take `COc1ccc2c(ccc3c(-c4cc5c(cc4OC)-c4c(cc(O)cc4OC)CC5)c(O)cc(OC)c32)c1`: the MIC in assay [1], in assay [2], in assay [3], in assay [4], in assay [5] and in assay [6] was greater than 128 µg/mL throughout. Moreover, the MIC in assay [7] and in assay [8] was greater than 128 µg/mL each time.
In the case of `COc1cc(O)c2c(c1)CCc1cc(O)c(-c3c(O)cc(OC)c4c3ccc3cc(OC)ccc34)cc1-2`, the MIC is greater than 128 µg/mL in assay [1]; 64 µg/mL (≈ 129 µM) in assay [2]; 8 µg/mL (≈ 16.2 µM) in assay [3]; 8 µg/mL (≈ 16.2 µM) in assay [4]; 16 µg/mL (≈ 32.4 µM) in assay [5]; 8 µg/mL (≈ 16.2 µM) in assay [6]. Besides, the MIC in assay [7] is greater than 128 µg/mL; in assay [8], 8 µg/mL (≈ 16.2 µM).
With `COc1ccc2c(ccc3c(-c4c(O)cc(OC)c5c4CCc4cc(O)ccc4-5)c(O)cc(OC)c32)c1`, the minimal inhibitory concentration (MIC) in assay [1] is greater than 128 µg/mL; in assay [2] it was 4 µg/mL (≈ 8.09 µM); in assay [3], 4 µg/mL (≈ 8.09 µM); in assay [4] it was 2 µg/mL (≈ 4.04 µM); in assay [5], 4 µg/mL (≈ 8.09 µM); in assay [6], 4 µg/mL (≈ 8.09 µM). In addition, the figures for the MIC in assay [7] and in assay [8] were greater than 128 µg/mL and 4 µg/mL (≈ 8.09 µM), respectively.
`COc1c(O)ccc2c1ccc1c(-c3c(O)cc(OC)c4c3ccc3c(OC)c(O)ccc34)c(O)cc(OC)c12`: the minimal inhibitory concentration (MIC) in assay [1] was greater than 128 µg/mL; in assay [2], 64 µg/mL (≈ 119 µM); in assay [3], 8 µg/mL (≈ 14.9 µM); in assay [4], 8 µg/mL (≈ 14.9 µM); in assay [5], 8 µg/mL (≈ 14.9 µM); in assay [6] it was 16 µg/mL (≈ 29.7 µM). The MIC in assay [7] was greater than 128 µg/mL; in assay [8] it was 16 µg/mL (≈ 29.7 µM).
On to `CC1(C)S[C@@H]2[C@H](NC(=O)[C@H](N)c3ccccc3)C(=O)N2[C@H]1C(=O)O` [AMPICILLIN], for which the MIC was greater than 8 µg/mL in assay [1]; 4 µg/mL (≈ 11.4 µM) in assay [2]; 8 µg/mL (≈ 22.9 µM) in assay [3]; 8 µg/mL (≈ 22.9 µM) in assay [4]; greater than 8 µg/mL in assay [5]; greater than 8 µg/mL in assay [6]. Further, the MIC in assay [7] is greater than 8 µg/mL; in assay [8] it was 0.125 µg/mL (≈ 0.358 µM).
In the case of `COc1cc(O)c(-c2c(O)cc(OC)c3c2ccc2cc(O)ccc23)c2ccc3cc(O)ccc3c12` [CIRRHOPETALANTHIN], the MIC was greater than 128 µg/mL in assay [1]; 16 µg/mL (≈ 33.4 µM) in assay [2]; 16 µg/mL (≈ 33.4 µM) in assay [3]; 16 µg/mL (≈ 33.4 µM) in assay [4]; 8 µg/mL (≈ 16.7 µM) in assay [5]; 16 µg/mL (≈ 33.4 µM) in assay [6]. In addition, the MIC was greater than 128 µg/mL in assay [7] and 32 µg/mL (≈ 66.9 µM) in assay [8].
